Laboratory results from article PMC7269146, “Jingzhaotoxin-X, a gating modifier of Kv4.2 and Kv4.3 potassium channels purified from the venom of the Chinese tarantula Chilobrachys jingzhao” (The Journal of Venomous Animals and Toxins Including …, 2020).
Entries after “also recorded” stand apart in the source; their conditions may differ. Where a SMILES comes first, the peptide text is derived from it. Bridges are numbered along the chain shown (N, C = ends).

What was measured:
Ito potassium channels = experiment: voltage-clamp, Ito potassium currents in rat DRG neurons; assay type: cell-based
Experimental: (§1) An EPC-10 patch-clamp amplifier (HEKA, Germany) was employed to record the potassium currents at the configuration of whole-cell patch-clamp under an ambient temperature of 22-25°C. The resistance was 2.0-3.0 MΩ when the recording pipette contained a full volume of internal solution (supplemented with 140 mM KCl, 10 mM HEPES, 2.5 mM MgCl2, 5 mM ATP and 11 mM EGTA). KOH was utilized to adjust the pH to 7.2, while sucrose was employed to adjust the osmolarity to 310 mOsm/L. The culture medium was replaced with an external solution containing 150 mM NaCl, 2.5 mM CaCl2, 10 mM HEPES, 2 mM MgCl2, 5 mM KCl, and 10 mM D-glucose. Similarly, sucrose and NaOH were applied to adjust the osmolarity to 330 mOsm/L and pH to 7.4. […] The series resistance was maintained at about 5 MΩ, with 65-70% compensation. Finally, the leakage currents and linear capacitance were subtracted digitally according to the P/4 protocol. […]
Firstly, the effects of JZTX-X on the isoforms of potassium channels (including Kv1.1-1.3, Kv2.1, as well as Kv4.2-4.3) contained within the X. laevis oocytes were investigated through the microelectrode voltage-clamp approach. […] We also determined the effects of JZTX-X on Ito potassium channels in rat DRG neurons; those current amplitudes were inhibited by 54.4±6.8% when 500 nM JZTX-X was applied (Fig. 3K, n = 5).

Nav1.5 = experiment: voltage-clamp, Nav1.5 currents; assay type: cell-based, human; conditions: 1 μM; n = 3
From the text: (§2) Rat cDNA genes encoding Kv4.2 (Accession: NM_031730.2) and Kv4.3 (Accession: AB003587.1) were subcloned to vector pcDNA3.1. In addition, human cDNA genes encoding Nav1.7 (Accession: DQ857292.1) and Nav1.5 (Accession: AB158469.2) were subcloned to vectors pcDNA3.1-mod and pcDNA3.1, separately. Then, Kv4.2, Kv4.3, Nav1.5 and Nav1.7 constructs were transiently transfected into the human embryonic kidney 293t (HEK293t) cells using lipofectamine 2000 (Invitrogen, USA) in accordance with manufacturer protocols. Thereafter, HEK293 cells were inoculated within Dulbecco’s modified Eagle’s medium (DMEM) containing 10% fetal bovine serum (FBS) at 5% CO2 and 37°C. The Kv4.3 channel and the Kv4.2 counterpart were then transfected in the absence of β subunit. Subsequently, cells were incubated with a DNA-lipofectamine mixture (one reporter plasmid for green fluorescence protein and channel constructs) for 4-6 h, and were washed with the fresh medium.
An EPC-10 patch-clamp amplifier (HEKA, Germany) was employed to record the potassium currents at the configuration of whole-cell patch-clamp under an ambient temperature of 22-25°C. The resistance was 2.0-3.0 MΩ when the recording pipette contained a full volume of internal solution (supplemented with 140 mM KCl, 10 mM HEPES, 2.5 mM MgCl2, 5 mM ATP and 11 mM EGTA). […]

Kv4.3 = molecular target: T1, Kv4.3 (Rattus norvegicus, UniProt Q62897); experiment: whole-cell patch-clamp, Kv4.3 in HEK293t cells, concentration-response and time course; assay type: cell-based
T1 construct: expressed in transfected cells; host or cells: HEK293t
T1 sequence (Q62897 1-655): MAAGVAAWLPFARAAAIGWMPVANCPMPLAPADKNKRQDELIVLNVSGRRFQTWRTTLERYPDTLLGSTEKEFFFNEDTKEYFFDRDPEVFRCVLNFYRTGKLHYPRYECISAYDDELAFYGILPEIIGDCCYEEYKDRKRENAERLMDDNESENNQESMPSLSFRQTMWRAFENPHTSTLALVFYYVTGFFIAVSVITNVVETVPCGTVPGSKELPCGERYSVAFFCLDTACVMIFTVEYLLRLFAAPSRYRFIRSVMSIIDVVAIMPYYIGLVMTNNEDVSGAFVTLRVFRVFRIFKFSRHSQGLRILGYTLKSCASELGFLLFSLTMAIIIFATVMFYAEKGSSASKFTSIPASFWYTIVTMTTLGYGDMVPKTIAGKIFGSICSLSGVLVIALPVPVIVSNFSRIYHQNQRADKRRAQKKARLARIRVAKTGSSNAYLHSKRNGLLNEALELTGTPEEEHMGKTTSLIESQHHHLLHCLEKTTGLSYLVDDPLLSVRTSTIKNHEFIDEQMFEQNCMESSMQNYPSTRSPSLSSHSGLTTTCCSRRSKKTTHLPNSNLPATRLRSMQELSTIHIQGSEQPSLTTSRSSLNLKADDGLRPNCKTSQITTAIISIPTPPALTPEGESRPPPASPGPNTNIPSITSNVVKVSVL
From the text: as §2, §1
On-rates were determined by fitting time course data with a single exponential decay function (2): y = Ae^-kx + C, where x is the time, A is the normalized current value before the application of toxin (usually 1.0), and C is the final normalized current value following the block by the toxin. The on-rate (τon) was determined from the inverse of the rate constant k.
Off-rates were determined by fitting time course data with a double exponential association function (3): y = A(1-e^-kx) + B(1-e^-fx) + C, where x is the time, A or B is the normalized current value after washout of the toxin (usually 1.0 if complete washout occurred), and C is the normalized current value before the washout of the toxin. The off-rate (τoff) was determined from the inverse of the rate constant k or f.

Compound: CC(C)C[C@@H]1NC(=O)[C@H](CCCCN)NC(=O)[C@H](Cc2ccc(O)cc2)NC(=O)[C@@H]2CSSC[C@@H]3NC(=O)[C@H](Cc4ccc(O)cc4)NC(=O)[C@H](Cc4ccccc4)NC(=O)CNC(=O)[C@H](C)NC(=O)[C@H](CSSC[C@H](NC(=O)[C@@H](N)CC(C)C)C(=O)N[C@@H](CO)C(=O)N[C@@H](CCCNC(=N)N)C(=O)N[C@@H](CCC(=O)O)C(=O)NCC(=O)N[C@@H](CCC(=O)O)C(=O)N[C@@H](Cc4ccccc4)C(=O)N2)NC(=O)[C@H](CSSC[C@@H](C(=O)N[C@@H](Cc2ccc(O)cc2)C(=O)N[C@@H](CCCNC(=N)N)C(=O)N[C@@H](CC(N)=O)C(=O)O)NC(=O)[C@H](Cc2c[nH]cn2)NC(=O)[C@H](CC(C)C)NC(=O)[C@H](C(C)C)NC(=O)[C@H](Cc2ccccc2)NC(=O)[C@H](C)NC(=O)[C@H](CCCCN)NC3=O)NC(=O)[C@H](CCCCN)NC(=O)[C@H](CCCNC(=N)N)NC1=O [JZTX-X, Jingzhaotoxin-X] (H-LCSREGEFCYKLRKCCAGFYCKAFVLHCYRN-OH; disulfide 2-16, 9-21, 15-28; N-terminus assumed)
- inhibition of Ito current (Ito potassium channels; 500 nM, n = 5): 54.4±6.8%
- IC50 (Ito potassium channels; Hill equation fit, n = 6): 386 nM
- effect on Nav1.5 channel (Nav1.5): negligible effect; also recorded: did not affect the currents
- inhibition of Kv4.3 at resting potential without pulses (Kv4.3; -80 mV, no pulse during first ~100 s of treatment with 200 nM or 500 nM (order Kv4.2, Kv4.3), same as with pulses at 5 s intervals, n = 5): approximately 95%
- IC50 (Kv4.3; HEK293t cells, 1 nM-10 μM, 300-ms step to +20 mV from -80 mV, 22-25°C, pH 7.4, Hill equation fit, n = 8, read-out: IC50 for Kv4.3 channels): 210 nM
- Hill Coefficient, Kv4.3 (Kv4.3; HEK293t cells, +20 mV from -80 mV, n = 8): 1.17
- reversal of Kv4.3 inhibition after rinsing (Kv4.3; in 3 min following rinsing, high JZTX-X dose, HEK293t cells, n = 6): > 95%
